From PubChem BioAssay (NCI)
Several values for one entry are separate records, joined by “and”; a condition that tells them apart may be missing. Equal entries are not always repeated.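 Growth conditions: 96-well plates. Treatment: test compound, 48 hours, 5 concentrations. Analysis: linear interpolation between bracketing concentrations; unreached endpoints set to highest concentration. GI50 = concentration required for 50% inhibition of growth. TGI: concentration producing complete growth inhibition.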

How the values were obtained:
Assay in all cases: DTP human tumour cell line panel, 48 h
HT29 colon = test system: HT29 colon
SNB-75 CNS = test system: SNB-75 CNS
U251 CNS = test system: U251 CNS
UACC-62 melanoma = test system: UACC-62 melanoma
EKVX NSCLC = test system: EKVX NSCLC
SN12C renal = test system: SN12C renal
A549 NSCLC = test system: A549 NSCLC
DU-145 prostate = test system: DU-145 prostate
HS 578T breast = test system: HS 578T breast
MCF7 breast = test system: MCF7 breast

Question: Which TGI (HT29 colon) does the source give for `O=C(NCC(O)CNC(=O)C(F)(F)F)C(F)(F)F` here?
Answer: > 100 µM

Question: And the TGI (SNB-75 CNS)?
Answer: > 100 µM

Question: And the TGI (U251 CNS)?
Answer: > 100 µM

Question: And the TGI (UACC-62 melanoma)?
Answer: > 100 µM

Question: And the TGI (EKVX NSCLC)?
Answer: > 100 µM

Question: What about the TGI (SN12C renal) of the same compound?
Answer: > 100 µM

Question: What about the TGI (A549 NSCLC) of the same compound?
Answer: > 100 µM

Question: What does the source list for `COc1cc2c(cc1OC)C(=O)Cc1ccc(OC)c(OC)c1CN(C)CC2`?
Answer: TGI (HT29 colon): > 100 µM; TGI (SNB-75 CNS): > 100 µM; TGI (U251 CNS): > 100 µM; TGI (UACC-62 melanoma): > 100 µM; TGI (EKVX NSCLC): > 100 µM; TGI (SN12C renal): > 100 µM; TGI (A549 NSCLC): > 100 µM

Question: With `O=C1c2ccccc2C(=O)N1C/C=C/CO` as the compound, how does the TGI (SNB-75 CNS) read?
Answer: > 100 µM

Question: And the TGI (U251 CNS)?
Answer: > 100 µM

Question: And the TGI (UACC-62 melanoma)?
Answer: > 100 µM

Question: What about the TGI (SN12C renal) of the same compound?
Answer: > 100 µM

Question: And the TGI (A549 NSCLC)?
Answer: > 100 µM

Question: What does the source list for `CSCCOC(=O)C(=[N+]=[N-])c1ccc([N+](=O)[O-])cc1`?
Answer: TGI (HT29 colon): > 100 µM; TGI (SNB-75 CNS): > 100 µM; TGI (U251 CNS): > 100 µM; TGI (EKVX NSCLC): > 100 µM; TGI (SN12C renal): > 100 µM; TGI (A549 NSCLC): > 100 µM

Question: What does the source list for `CN(C)CCOC(c1ccccc1)c1ccccc1`?
Answer: GI50 (HT29 colon): 23.8 µM; TGI (HT29 colon): 45.5 µM and > 100 µM; GI50 (DU-145 prostate): 40.3 µM; TGI (DU-145 prostate): 55.8 µM and > 100 µM; GI50 (HS 578T breast): 32.2 µM; TGI (HS 578T breast): 51.3 µM and > 100 µM; GI50 (UACC-62 melanoma): 32.7 µM; TGI (UACC-62 melanoma): 48.4 µM; TGI (EKVX NSCLC): > 100 µM; GI50 (SN12C renal): 34.6 µM; TGI (SN12C renal): 50.2 µM and > 100 µM; GI50 (MCF7 breast): 36.5 µM; TGI (MCF7 breast): 54 µM and > 100 µM; GI50 (A549 NSCLC): 35.9 µM; TGI (A549 NSCLC): 51.7 µM and > 100 µM

Question: Which TGI (SNB-75 CNS) does the source give for `O=C(NC1C2CC3CC(C2)CC1C3)c1cc(/C=C/c2ccccc2)[nH]c(=S)n1` (stereo not given) here?
Answer: > 100 µM

Question: What about the TGI (U251 CNS) of the same compound?
Answer: > 100 µM

Question: What about the TGI (UACC-62 melanoma) of the same compound?
Answer: > 100 µM

Question: What about the TGI (EKVX NSCLC) of the same compound?
Answer: > 100 µM

Question: And the TGI (A549 NSCLC)?
Answer: > 100 µM

Question: For `O=C1CC(O)(c2ccccc2)C(c2ccccc2)=C1c1ccccc1` (stereo not given), which TGI (HT29 colon) is on record?
Answer: > 100 µM

Question: And the TGI (SNB-75 CNS)?
Answer: 96.7 µM

Question: And the TGI (UACC-62 melanoma)?
Answer: > 100 µM

Question: What about the TGI (EKVX NSCLC) of the same compound?
Answer: > 100 µM

Question: And the TGI (SN12C renal)?
Answer: > 100 µM

Question: And the TGI (A549 NSCLC)?
Answer: > 100 µM

Question: With `CCc1ccc2c(c1)N(CCO)C1=C(C(=O)OC1)C2c1cccc(Cl)c1` (stereo not given) as the compound, how does the GI50 (HT29 colon) read?
Answer: 0.345 µM

Question: And the TGI (HT29 colon)?
Answer: 11.1 µM

Question: And the GI50 (SNB-75 CNS)?
Answer: 0.395 µM

Question: And the TGI (SNB-75 CNS)?
Answer: 14.6 µM

Question: And the GI50 (DU-145 prostate)?
Answer: 1.67 µM

Question: What about the TGI (DU-145 prostate) of the same compound?
Answer: 13.5 µM

Question: What about the GI50 (HS 578T breast) of the same compound?
Answer: 1.37 µM

Question: And the TGI (HS 578T breast)?
Answer: 32.2 µM

Question: And the GI50 (U251 CNS)?
Answer: 0.499 µM

Question: What about the TGI (U251 CNS) of the same compound?
Answer: 15.5 µM

Question: And the GI50 (UACC-62 melanoma)?
Answer: 0.537 µM

Question: What about the TGI (UACC-62 melanoma) of the same compound?
Answer: 18.5 µM

Question: And the GI50 (EKVX NSCLC)?
Answer: 5.33 µM

Question: What about the TGI (EKVX NSCLC) of the same compound?
Answer: 31.1 µM

Question: What about the GI50 (SN12C renal) of the same compound?
Answer: 2.03 µM

Question: And the TGI (SN12C renal)?
Answer: 19 µM

Question: And the GI50 (A549 NSCLC)?
Answer: 0.784 µM

Question: And the TGI (A549 NSCLC)?
Answer: 18.6 µM

Question: Which results are given for `COc1ccc2oc(C(=O)O)c3c2c1CCC3`?
Answer: TGI (HT29 colon): > 100 µM; TGI (SNB-75 CNS): > 100 µM; TGI (U251 CNS): > 100 µM; TGI (UACC-62 melanoma): > 100 µM; TGI (EKVX NSCLC): > 100 µM; TGI (SN12C renal): > 100 µM; TGI (A549 NSCLC): > 100 µM

Question: How did the TGI (HT29 colon) turn out when `CC1OC(OC2C(CO)OC(O[C@H]3CC[C@@]4(C)C(=CC[C@H]5[C@@H]6C[C@@H]7O[C@]8(CC[C@@H](C)CN8)[C@@H](C)[C@@H]7[C@@]6(C)CC[C@@H]54)C3)C(O)C2O)C(O)C(O)C1O` (stereo not given in full) was run?
Answer: > 100 µM

Question: What about the TGI (SNB-75 CNS) of the same compound?
Answer: > 100 µM

Question: What about the TGI (U251 CNS) of the same compound?
Answer: > 100 µM

Question: What about the TGI (UACC-62 melanoma) of the same compound?
Answer: > 100 µM

Question: And the TGI (EKVX NSCLC)?
Answer: > 100 µM

Question: And the TGI (SN12C renal)?
Answer: > 100 µM

Question: What about the TGI (A549 NSCLC) of the same compound?
Answer: > 100 µM

Question: For `Cc1cc2c(c3oc(C4(C)OC4C4OC4C)cc(=O)c13)C(=O)c1c(O)c(C3CC(C)(N(C)C)C(O)C(C)O3)cc(C3CC(N(C)C)C(O)C(C)O3)c1C2=O` (stereo not given), which GI50 (HT29 colon) is on record?
Answer: 0.0025 µM

Question: And the TGI (HT29 colon)?
Answer: 0.0427 µM and 0.131 µM and 0.0337 µM

Question: And the TGI (DU-145 prostate)?
Answer: 0.000138 µM and 0.000556 µM

Question: What about the GI50 (HS 578T breast) of the same compound?
Answer: 0.00158 µM

Question: What about the TGI (HS 578T breast) of the same compound?
Answer: 0.00405 µM and 0.00187 µM

Question: What about the TGI (UACC-62 melanoma) of the same compound?
Answer: 0.00016 µM and 0.000228 µM

Question: What about the TGI (EKVX NSCLC) of the same compound?
Answer: 0.00078 µM and 0.000929 µM

Question: What about the TGI (A549 NSCLC) of the same compound?
Answer: 0.00351 µM and 0.0142 µM and 0.0177 µM

Question: Which TGI (HT29 colon) does the source give for `CCOc1ccccc1NC(=O)CCc1n[nH]c(=S)o1` here?
Answer: > 100 µM

Question: What about the TGI (SNB-75 CNS) of the same compound?
Answer: > 100 µM

Question: What about the TGI (U251 CNS) of the same compound?
Answer: > 100 µM

Question: What about the TGI (UACC-62 melanoma) of the same compound?
Answer: > 100 µM

Question: And the TGI (EKVX NSCLC)?
Answer: > 100 µM

Question: What about the TGI (SN12C renal) of the same compound?
Answer: > 100 µM

Question: And the TGI (A549 NSCLC)?
Answer: > 100 µM

Question: What does the source list for `CCOC(=O)/C(C#N)=C1/C(O)=C(C(=O)OC)C(C(=O)OC)=C1C(=O)OC`?
Answer: TGI (HT29 colon): > 100 µM; TGI (SNB-75 CNS): > 100 µM; TGI (U251 CNS): > 100 µM; TGI (UACC-62 melanoma): > 100 µM; TGI (EKVX NSCLC): > 100 µM; TGI (SN12C renal): > 100 µM; TGI (A549 NSCLC): > 100 µM
